This is an account of results in US9845321B2, “1,3-dihydro-2H-benzimidazol-2-one derivatives substituted with heterocycles as respiratory syncytial virus antiviral agents” (JANSSEN SCIENCES IRELAND UC, priority 2012, dated 2017).

The subject of one data set is rgRSV224 virus. Put plainly: Antiviral activity: rgRSV224 (GFP-expressing RSV) replication in HeLa cells, GFP expression measured three days post-virus exposure. In kind it is cell-based. Particulars: human respiratory syncytial virus, 72 h, read-out: WT activity pEC50 (converted). On the procedure: (§1) Black 96-well clear-bottom microtiter plates (Corning, Amsterdam, The Netherlands) were filled in duplicate using a customized robot system with serial 4-fold dilutions of compound in a final volume of 50 μl culture medium [RPMI medium without phenol red, 10% FBS, 0.04% gentamycin (50 mg/ml) and 0.5% DMSO]. Then, 100 μl of a HeLa cell suspension (5×10^4 cells/ml) in culture medium was added to each well followed by the addition of 50 μl rgRSV224 (MOI=0.02) virus in culture medium using a multidrop dispenser (Thermo Scientific, Erembodegem, Belgium). rgRSV224 virus is an engineered virus that includes an additional GFP gene (Hallak et al, 2000) and was in-licensed from the NIH (Bethesda, Md., USA). Medium, virus- and mock-infected controls were included in each test. Cells were incubated at 37° C. in a 5% CO2 atmosphere. Three days post-virus exposure, viral replication was quantified by measuring GFP expression in the cells by a MSM laser microscope (Tibotec, Beerse, Belgium). The EC50 was defined as the 50% inhibitory concentration for GFP expression. In parallel, compounds were incubated for three days in a set of white 96-well microtitier plates (Corning) and the cytotoxicity of compounds in HeLa cells was determined by measuring the ATP content of the cells using the ATPlite kit (PerkinElmer, Zaventem, Belgium) according to the manufacturer's instructions. The CC50 was defined as the 50% concentration for cytotoxicity.

The nature of another data set: in vitro. In kind it is cell-based. The settings on record: human. The protocol:
as §1

The CC50 is the concentration at which the toxic effect on the cells reaches its halfway point. The low end stands for harm at low concentration, the high end for better tolerance by the cells. With `N#CCCCn1c(Cn2c(=O)n(-c3ncccn3)c3ccncc32)cc2cc(Cl)ccc21` [Compound P21, 4-(5-chloro-2-((2-oxo-1-(pyrimidin-2-yl)-1H-imidazo[4,5-c]pyridin-3(2H)-yl)methyl)-1H-indol-1-yl)butanenitrile], in the data set on rgRSV224 virus, the EC50 was 6.31 nM. The CC50 at 3 days in the data set “in vitro” is greater than 100000 nM.

With `CC(C)CCn1c(Cn2c(=O)n(-c3ccncc3)c3ccncc32)nc2nc(Cl)ccc21` [Compound P23, 3-((5-chloro-1-isopentyl-1H-imidazo[4,5-b]pyridin-2-yl)methyl)-1-(pyridin-4-yl)-1H-imidazo[4,5-c]pyridin-2(3H)-one], in the data set on rgRSV224 virus, the EC50 was 7.94 nM. Besides, the CC50 at 3 days in the data set “in vitro” was greater than 100000 nM.

`COCCOc1ccc(-n2c(=O)n(Cc3cc4cc(Cl)ccc4n3CCCC#N)c3cnccc32)cc1` [Compound P28, 4-(5-chloro-2-((1-(4-(2-methoxyethoxy)phenyl)-2-oxo-1H-imidazo[4,5-c]pyridin-3(2H)-yl)methyl)-1H-indol-1-yl)butanenitrile]: the EC50 in the data set with rgRSV224 virus was 0.2 nM. In “in vitro”, this compound had a CC50 at 3 days greater than 100000 nM.

Regarding `N#CCCCn1c(Cn2c(=O)n(-c3ccc(OC(F)(F)F)cc3)c3ccncc32)cc2cc(Cl)ccc21` [Compound P29, 4-(5-chloro-2-((2-oxo-1-(4-(trifluoromethoxy)phenyl)-1H-imidazo[4,5-c]pyridin-3(2H)-yl)methyl)-1H-indol-1-yl)butanenitrile], the EC50 in the data set with rgRSV224 virus was 1.26 nM. The CC50 at 3 days in “in vitro” is greater than 100000 nM.

`CS(=O)(=O)CCCn1c(Cn2c(=O)n(-c3ccc(Cl)cc3)c3ccncc32)cc2cc(Cl)ccc21` [Compound P30, 3-((5-chloro-1-(3-(methylsulfonyl)propyl)-1H-indol-2-yl)methyl)-1-(4-chlorophenyl)-1H-imidazo[4,5-c]pyridin-2(3H)-one]: in the data set with rgRSV224 virus, the EC50 is 1.58 nM. In “in vitro”, this compound registered a CC50 at 3 days greater than 100000 nM.

Regarding `O=c1n(Cc2cc3cc(Cl)ccc3n2CCCCF)c2cnccc2n1-c1ccc2ncccc2c1` [Compound P31, 3-((5-chloro-1-(4-fluorobutyl)-1H-indol-2-yl)methyl)-1-(quinolin-6-yl)-1H-imidazo[4,5-c]pyridin-2(3H)-one], the EC50 in the data set on rgRSV224 virus was 1.58 nM. The same compound showed a CC50 at 3 days in the data set “in vitro” greater than 100000 nM.

As for `Cn1ccnc1-n1c(=O)n(Cc2cc3cc(Cl)ccc3n2CCCC#N)c2cnccc21` [Compound P33, 4-(5-chloro-2-((1-(1-methyl-1H-imidazol-2-yl)-2-oxo-1H-imidazo[4,5-c]pyridin-3(2H)-yl)methyl)-1H-indol-1-yl)butanenitrile], the EC50 with rgRSV224 virus is 10 nM. Besides, the CC50 at 3 days in “in vitro” was greater than 100000 nM.

On to `CS(=O)(=O)c1ccc(-n2c(=O)n(Cc3cc4cc(Cl)ccc4n3CCCC#N)c3cnccc32)cc1` [Compound P41, 4-(5-chloro-2-((1-(4-(methylsulfonyl)phenyl)-2-oxo-1H-imidazo[4,5-c]pyridin-3(2H)-yl)methyl)-1H-indol-1-yl)butanenitrile], for which, in the data set on rgRSV224 virus, the EC50 is 0.2 nM. This compound came in with a CC50 at 3 days in “in vitro” greater than 100000 nM.

Regarding `N#CCCCn1c(Cn2c(=O)n(-c3ccncc3F)c3ccncc32)cc2cc(Cl)ccc21` [Compound P42, 4-(5-chloro-2-((1-(3-fluoropyridin-4-yl)-2-oxo-1H-imidazo[4,5-c]pyridin-3(2H)-yl)methyl)-1H-indol-1-yl)butanenitrile], the EC50 in the data set with rgRSV224 virus was 0.316 nM. The compound further had a CC50 at 3 days in “in vitro” greater than 100000 nM.

As for `N#CCCCn1c(Cn2c(=O)n(-c3ccc4ncccc4c3)c3ccncc32)cc2cc(Cl)ccc21` [Compound P43, 4-(5-chloro-2-((2-oxo-1-(quinolin-6-yl)-1H-imidazo[4,5-c]pyridin-3(2H)-yl)methyl)-1H-indol-1-yl)butanenitrile], in the data set on rgRSV224 virus, the EC50 was 0.398 nM. Also, the 50% cytotoxic concentration (CC50) at 3 days in the data set “in vitro” is greater than 100000 nM.

On to `O=c1n(Cc2cc3cc(Cl)ccc3n2CCCCF)c2cnccc2n1-c1ccncc1` [Compound P44, 3-((5-chloro-1-(4-fluorobutyl)-1H-indol-2-yl)methyl)-1-(pyridin-4-yl)-1H-imidazo[4,5-c]pyridin-2(3H)-one], for which the EC50 in the data set with rgRSV224 virus was 1 nM. The compound also yielded a CC50 at 3 days in the data set “in vitro” greater than 100000 nM.
